Data from the supplement of paper PMC10307832.

Experiments:
Assay in all cases: relative viability (nuclei count vs DMSO), 5 days (fraction); higher = more cells survive
CUDC-101 + Trametinib = compound: C#Cc1cccc(Nc2ncnc3cc(OC)c(OCCCCCCC(=O)NO)cc23)c1 [CUDC-101] + CC(=O)Nc1cccc(-n2c(=O)n(C3CC3)c(=O)c3c(Nc4ccc(I)cc4F)n(C)c(=O)c(C)c32)c1 [Trametinib] (partner 0.02 µM)
Outline: (§1)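 One day after seeding in 1536-well plates, lung cancer cell lines were dosed by pin tool. Dosing was either single-drug or a fixed anchor-drug dose plus five library-drug doses (not always all listed) in √10 steps. After 5 days, nuclei were stained in one fix-and-stain step and counted on 4× images, and relative viability is the nuclei count of treated wells over that of vehicle wells, given as the median of duplicate plates.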

NVP-TAE684 + Foretinib = compound: COc1cc(N2CCC(N3CCN(C)CC3)CC2)ccc1Nc1ncc(Cl)c(Nc2ccccc2S(=O)(=O)C(C)C)n1 [NVP-TAE684] + COc1cc2c(Oc3ccc(NC(=O)C4(C(=O)Nc5ccc(F)cc5)CC4)cc3F)ccnc2cc1OCCCN1CCOCC1 [Foretinib] (partner 0.25 µM)
Outline: as §1

NVP-TAE684 + Trametinib = compound: COc1cc(N2CCC(N3CCN(C)CC3)CC2)ccc1Nc1ncc(Cl)c(Nc2ccccc2S(=O)(=O)C(C)C)n1 [NVP-TAE684] + CC(=O)Nc1cccc(-n2c(=O)n(C3CC3)c(=O)c3c(Nc4ccc(I)cc4F)n(C)c(=O)c(C)c32)c1 [Trametinib] (partner 0.02 µM)
Outline: as §1

Vandetanib + Crizotinib = compound: COc1cc2/c(=N/c3ccc(Br)cc3F)nc[nH]c2cc1OCC1CCN(C)CC1 [Vandetanib] + C[C@@H](Oc1cc(-c2cnn(C3CCNCC3)c2)cnc1N)c1c(Cl)ccc(F)c1Cl [Crizotinib] (partner 1 µM)
Outline: as §1

NVP-TAE684 + Palbociclib = compound: COc1cc(N2CCC(N3CCN(C)CC3)CC2)ccc1Nc1ncc(Cl)c(Nc2ccccc2S(=O)(=O)C(C)C)n1 [NVP-TAE684] + CC(=O)c1c(C)c2cnc(Nc3ccc(N4CCNCC4)cn3)nc2n(C2CCCC2)c1=O [Palbociclib] (partner 0.5 µM)
Outline: as §1

Row | Cell Line | relative viability (CUDC-101 + Trametinib; first compound 0.01 µM) | relative viability (CUDC-101 + Trametinib; first compound 0.03162 µM) | relative viability (CUDC-101 + Trametinib; first compound 0.1 µM) | relative viability (CUDC-101 + Trametinib; first compound 0.3162 µM) | relative viability (CUDC-101 + Trametinib; first compound 1 µM) | relative viability (NVP-TAE684 + Foretinib; first compound 0.2 µM) | relative viability (NVP-TAE684 + Foretinib; first compound 0.6325 µM) | relative viability (NVP-TAE684 + Foretinib; first compound 2 µM) | relative viability (NVP-TAE684 + Trametinib; first compound 0.2 µM) | relative viability (NVP-TAE684 + Trametinib; first compound 0.6325 µM) | relative viability (NVP-TAE684 + Trametinib; first compound 2 µM) | relative viability (Vandetanib + Crizotinib; first compound 0.02 µM) | relative viability (Vandetanib + Crizotinib; first compound 0.06325 µM) | relative viability (Vandetanib + Crizotinib; first compound 0.2 µM) | relative viability (Vandetanib + Crizotinib; first compound 0.6325 µM) | relative viability (Vandetanib + Crizotinib; first compound 2 µM) | relative viability (NVP-TAE684 + Palbociclib; first compound 0.2 µM) | relative viability (NVP-TAE684 + Palbociclib; first compound 0.6325 µM) | relative viability (NVP-TAE684 + Palbociclib; first compound 2 µM)
1 | 201T | 0.734 | 0.711 | 0.714 | 0.69 | 0.701 | 1.12 | 0.96 | 0.403 | 0.712 | 0.716 | 0.629 | 1 | 1.03 | 0.978 | 0.95 | 0.969 | 0.358 | 0.333 | 0.312
2 | A549 | – | – | – | – | – | 1.01 | – | 0.659 | – | – | – | 0.777 | 0.69 | 0.862 | 0.686 | 0.683 | – | – | –
3 | A-427 | 0.763 | 0.743 | 0.736 | 0.733 | 0.461 | 0.952 | 1.1 | 0.498 | 0.699 | 0.627 | 0.462 | 0.895 | 0.88 | 0.966 | 0.874 | 0.879 | 0.539 | 0.527 | 0.431
4 | ABC-1 | – | – | – | – | – | 1.07 | 0.742 | 0.349 | – | – | – | 1.13 | 1.05 | 1 | 1.34 | 0.728 | 0.635 | 0.759 | 0.363
5 | BEN | 1.03 | 0.889 | 0.895 | 0.972 | 0.706 | 0.736 | 0.509 | 0.555 | 0.983 | 0.912 | – | 0.809 | 0.807 | 0.89 | 0.862 | 0.785 | 0.486 | 0.479 | 0.495
6 | CAL-12T | 0.311 | 0.381 | 0.373 | 0.41 | 0.335 | 1.05 | 1.11 | 0.233 | 0.283 | 0.251 | 0.127 | 0.778 | 0.846 | 0.799 | 0.707 | 0.364 | 0.357 | 0.344 | 0.186
7 | COR-L23 | 0.641 | 0.548 | 0.74 | 0.574 | 0.332 | 0.967 | 0.996 | 0.332 | 0.547 | 0.484 | 0.222 | 0.698 | 0.623 | 0.114 | 0.671 | 0.729 | 0.307 | 0.209 | 0.152
8 | COR-L 105 | 0.442 | 0.424 | 0.41 | 0.452 | 0.311 | 1.02 | 1.4 | 0.897 | 0.439 | 0.42 | 0.313 | 0.851 | 0.839 | 0.729 | 0.731 | 0.248 | 0.4 | 0.393 | 0.297
9 | Calu-6 | – | – | – | – | – | – | 0.878 | 0.671 | – | – | – | 0.816 | 0.723 | 0.897 | 0.833 | 0.791 | – | – | –
10 | ChaGo-K-1 | 0.958 | 0.898 | 0.909 | 0.87 | 0.784 | 0.943 | 0.818 | 0.538 | 0.899 | 0.843 | 0.58 | 1.1 | 1.19 | 1.14 | 1.13 | 1.16 | 1.04 | – | 0.7
11 | EBC-1 | – | – | – | – | – | 0.0925 | 0.117 | 0.107 | – | – | – | 0.19 | 0.177 | 0.195 | 0.194 | 0.152 | – | – | –
12 | EKVX | 0.353 | 0.349 | 0.335 | 0.407 | 0.224 | 0.51 | 0.806 | 0.537 | 0.285 | 0.241 | 0.334 | 1.01 | 0.882 | 1.13 | 1.02 | 0.531 | 0.358 | 0.351 | 0.34
13 | EMC-BAC-2 | 0.918 | 0.811 | 0.864 | 0.779 | 0.479 | 0.958 | 0.977 | 0.467 | 0.89 | 0.822 | 0.47 | 0.764 | 0.778 | 0.432 | 0.765 | 0.708 | 0.483 | 0.499 | 0.357
14 | EPLC-272H | 0.279 | 0.258 | 0.26 | 0.265 | 0.229 | 0.756 | 0.639 | 0.247 | 0.296 | 0.25 | 0.243 | 1.01 | 0.732 | 0.961 | 0.845 | 0.917 | 0.324 | 0.321 | 0.27
15 | H3255 | 0.596 | 0.536 | – | 0.445 | 0.209 | 0.882 | 0.804 | 0.631 | 0.569 | 0.611 | 0.631 | 0.882 | 0.847 | 0.739 | 0.519 | 0.208 | 0.324 | 0.299 | 0.296
16 | HARA | 0.417 | 0.487 | – | 0.356 | 0.235 | 0.886 | 0.619 | 0.517 | 0.575 | 0.69 | 0.155 | 1.04 | 1.02 | 1.01 | 0.998 | 0.956 | 0.297 | 0.234 | 0.164
17 | HCC-15 | 0.396 | 0.382 | 0.385 | 0.399 | 0.262 | 1.09 | 0.951 | 0.453 | 0.355 | 0.418 | 0.186 | 0.837 | 0.793 | 0.855 | 0.826 | 0.821 | 0.63 | 0.7 | 0.587
18 | HCC-44 | 1.04 | 1.08 | 1.04 | 1.05 | 1.03 | – | – | – | 0.982 | 1.08 | 0.926 | 0.82 | 0.802 | 0.879 | 0.863 | 0.872 | 1.01 | 0.986 | 0.867
19 | HCC-78 | 0.781 | 0.711 | 0.864 | 0.667 | 0.545 | 0.539 | 0.539 | 0.382 | 0.603 | 0.57 | 0.401 | 0.318 | 0.352 | 0.328 | 0.331 | 0.257 | 0.487 | 0.388 | 0.479
